Experimental data: PubChem BioAssay (NCI)
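Where inhibition never reached the appropriate level, the endpoint shown equals the highest concentration tested. Otherwise, values were interpolated linearly from a five-concentration, 48-hour dose response in 96-well plates. Here, GI50 denotes the concentration required for 50% inhibition of growth. TGI marks complete inhibition of growth.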

Legend:
Experiment in all cases: DTP human tumour cell line panel, 48 h
[1] = system: SR leukemia
[2] = system: 786-0 renal
[3] = system: SK-OV-3 ovarian
[4] = system: LOX IMVI melanoma
[5] = system: MDA-MB-435
[6] = system: HS 578T breast
[7] = system: SK-MEL-5 melanoma
[8] = system: UACC-62 melanoma
[9] = system: SN12C renal

Row | Structure (SMILES) | TGI [1] | TGI [2] | TGI [3] | TGI [4] | TGI [5] | TGI [6] | TGI [7] | TGI [8] | TGI [9] | GI50 [1] | GI50 [3] | GI50 [4] | GI50 [5] | GI50 [6] | GI50 [7] | GI50 [8] | GI50 [9]
1 | O=[N+]([O-])/C(Cl)=C(\NCCO)C(Cl)=C(Cl)Cl | 49.2 µM | 73.8 µM | > 100 µM | > 100 µM | > 100 µM | > 91.5 µM | > 100 µM | > 100 µM | > 100 µM |  |  |  |  |  |  |  | 
2 | COc1ccc(-c2c(/C=N/OCC(=O)O)c3sc4ccccc4n3c2/C=N/OCC(=O)O)cc1 |  | > 50 µM | > 50 µM | > 50 µM | > 50 µM | > 50 µM | > 50 µM | > 50 µM | > 50 µM |  |  |  |  |  |  |  | 
3 | COC(=O)CCCc1nc2ccccc2nc1N=Nc1ccccc1 | 72.7 µM | > 100 µM | > 100 µM | 31.3 µM | > 100 µM |  | > 100 µM | > 100 µM | > 100 µM |  |  |  |  |  |  |  | 
4 | CN(C)Cc1cc(/C=C/C(=O)c2ccc(Br)cc2)cc(CN(C)C)c1O |  | 29.9 µM | 55.1 µM |  | 36.8 µM |  | 40 µM | 39.1 µM | 32.3 µM |  |  |  |  |  |  |  | 
5 | Cc1cc2ccccc2n2c1nc1ccc(O)cc12 | > 10 µM | > 10 µM | > 10 µM |  | > 10 µM | > 10 µM | > 10 µM | > 10 µM | > 10 µM |  |  |  |  |  |  |  | 
6 | CC(=O)OC1C2CCC3CC2C2(SCCS2)C31 (stereo not drawn) | > 100 µM | > 100 µM | > 100 µM | > 100 µM | > 100 µM | > 100 µM | > 100 µM | > 100 µM | > 100 µM |  |  |  |  |  |  |  | 
7 | CCOC(=O)C1=C(N2CCCC2)C(=O)C(C(=O)OCC)C1 (stereo not drawn) |  | > 100 µM | > 100 µM | > 100 µM | > 100 µM |  | > 100 µM |  | > 100 µM |  |  |  |  |  |  |  | 
8 | CCOC(=O)c1c(SC(=O)c2ccc(Cl)cc2)n(-c2ccccc2)c(=S)n(-c2ccccc2)c1=O | > 100 µM | > 100 µM | > 100 µM | > 100 µM | > 100 µM | > 100 µM |  | > 100 µM | > 100 µM |  |  |  |  |  |  |  | 
9 | Cc1cc(C)c(S(=O)(=O)N(CCCCCN)OCCCN)c(C)c1 | 43.9 µM |  |  | 36.8 µM | 34.9 µM | 40 µM | 35.5 µM | 33.4 µM | 33.3 µM |  |  |  |  |  |  |  | 
10 | N#Cc1nc(CN2C(=O)c3ccccc3C2=O)oc1N | > 100 µM | > 100 µM | > 100 µM |  | > 100 µM | > 100 µM | > 100 µM |  | > 100 µM |  |  |  |  |  |  |  | 
11 | CSCCC(NC(=O)C(Cc1c[nH]c2ccccc12)NC(=O)CCNC(=O)OC(C)(C)C)C(=O)NC(CC(=O)O)C(=O)NC(Cc1ccccc1)C(N)=O (stereo not drawn) |  | > 50 µM | > 50 µM | > 50 µM | > 50 µM | > 50 µM | > 50 µM | > 50 µM | > 50 µM |  |  |  |  |  |  |  | 
12 | COc1ccc(/C=C/C(=O)c2cc(CN(C)C)c(O)c(CN(C)C)c2)cc1 | > 100 µM | > 100 µM |  | 31.9 µM | > 100 µM | > 100 µM | 32.4 µM |  | > 100 µM |  |  |  |  |  |  |  | 
13 | CNCC(SC)c1ccc(O)c(O)c1 (stereo not drawn) |  | 39.1 µM | > 100 µM | 84.9 µM | > 100 µM | > 100 µM | > 100 µM | > 100 µM | 45.8 µM |  |  |  |  |  |  |  | 
14 | CC(C)(C)N=C1C(=O)C2(C)CCC1C2(C)C (stereo not drawn) | > 100 µM | > 100 µM | > 100 µM | > 100 µM | > 100 µM |  | > 100 µM | 34.8 µM |  |  |  |  |  |  |  |  | 
15 | O=C(CCC(NC(=O)OCc1ccccc1)C(=O)OCc1ccccc1)Nc1cccc(OCc2ccccc2)c1 (stereo not drawn) | 65.5 µM | 33.2 µM | > 100 µM | 38.3 µM | 43.1 µM | 39.4 µM |  | > 100 µM | 46 µM |  |  |  |  |  |  |  | 
16 | O=C(NCc1cn(Cc2cccc(Oc3ccccc3)c2)nn1)c1cccnc1NCc1ccc(Cl)cc1 | > 100 µM |  | 69.2 µM | > 100 µM | 7.37 µM | > 100 µM | 7.4 µM | 6.92 µM | > 100 µM | 3.31 µM | 3.32 µM | 3.9 µM | 2.33 µM | 2.72 µM | 2.53 µM | 2.08 µM | 3.44 µM
17 | O=C(NNC(=O)c1ccncc1)C(=O)Nc1cc(Cl)c(Cl)cc1Cl |  | > 100 µM | > 100 µM | > 100 µM | > 100 µM | > 100 µM | > 100 µM | > 100 µM | > 100 µM |  |  |  |  |  |  |  | 
18 | Cc1cc2ccccc2oc(=O)/c1=N\Nc1ccccc1 | > 100 µM | 97 µM | 62.8 µM | > 100 µM | > 100 µM |  | > 100 µM | > 100 µM | > 100 µM |  |  |  |  |  |  |  | 
19 | COc1ccc(-c2csc3c2[N+]2(C)C=CC=C2C3N2CCCC2)cc1 (stereo not drawn) | 35.4 µM | > 100 µM | > 100 µM | > 100 µM | 59.5 µM | 98.6 µM | 28.8 µM | 38.2 µM |  |  |  |  |  |  |  |  | 
20 | CC1(C)Cc2ccccc2C(C)(Cl)C(=O)N1 (stereo not drawn) | > 10 µM | > 10 µM |  |  | > 10 µM |  |  | > 10 µM | > 10 µM |  |  |  |  |  |  |  | 
21 | C[C@H](NC(=O)C(C)(Cc1ccc(O)cn1)NC(=O)c1ccccc1)c1ccccc1 (stereo partly drawn) |  | > 100 µM |  | > 100 µM | > 100 µM | > 100 µM | > 100 µM | > 100 µM | > 100 µM |  |  |  |  |  |  |  | 
22 | COc1ccc(N=C(C)C(C)=Nc2ccc(OC)cc2)cc1 | > 100 µM | > 100 µM | > 100 µM | > 100 µM | > 100 µM | > 100 µM | > 100 µM |  | > 100 µM |  |  |  |  |  |  |  | 
23 | CCOC(=O)c1cnc2n(c1=O)[C@H]1CCCC[C@@H]1N2 |  | > 100 µM | > 100 µM | > 100 µM | > 100 µM | > 100 µM | > 100 µM | > 100 µM | > 100 µM |  |  |  |  |  |  |  | 
24 | Nc1ccnc2c1ncn2[C@H]1C[C@H](O)[C@@H](CO)O1 | > 100 µM | > 100 µM |  | > 100 µM | > 100 µM | > 100 µM | > 100 µM | > 100 µM | > 100 µM |  |  |  |  |  |  |  | 
25 | CCC1OC2(C)CC(C#N)(C#N)C1(C#N)C(=N)O2 (stereo not drawn) |  | > 100 µM | > 100 µM | > 100 µM | > 100 µM | > 100 µM | > 100 µM | > 100 µM | > 100 µM |  |  |  |  |  |  |  | 
